Measurements reported in patent publication US20260027179A1, “ANTI-SYNUCLEINOPATHY PEPTIDE AND METHODS TO TREAT NEURODEGENERATIVE DISEASES” (University of British Columbia, priority 2021, published 2026).
Peptide text beside a SMILES is read from it. * marks the point of attachment. Cbz = O=C(OCc1ccccc1)*

Key:
[1] = molecular target: T1, purified recombinant human α-synuclein (Homo sapiens, UniProt P37840); assay: Biacore peptide-protein binding assay; conditions: 0.20-12.50 μM peptide, report point 20 seconds into dissociation
T1 construct: His (histidine tag) (N); purchased Sigma S7820-500UG
Procedure: Biacore experiments were performed using a Biacore 3000 instrument (GE Healthcare Biosciences, Upsala, Sweden) and HBS running buffer, pH 7.4, containing 10 mM HEPES, 150 mM NaCl, 3 mM EDTA, and 0.005% surfactant P20. A research-grade CM5 sensor chip was activated with a mixture containing equal molar amounts of EDC (N-ethyl-N′-(dimethylaminopropyl) carbodiide and NHS (N-hydroxysuccinimide). Purified recombinant human α-synuclein (N-terminal histidine tagged, Sigma, S7820-500UG), diluted in sodium acetate pH 3.1, was then injected and covalently coupled to a flow cell of the sensor chip surface by amide bonding. Residual unreacted sites were blocked with ethanolamine. A reference surface, to account for non-specific binding, was similarly generated by activating and blocking an adjacent flow cell. Approximately 1500 resonance units (RU), equivalent to a surface concentration of 1500 pg/mm^2 of α-synuclein, was immobilized.
To ascertain the binding interaction between α-synuclein knockdown peptides and α-synuclein, synthetic Tat-βsyn-degron peptide or control tat peptide was serially diluted and sequentially injected over the active surface containing immobilized α-synuclein and the reference surface for 3 minutes at a flow rate of 30 μl/minute. The peptides were then allowed to dissociate for 3 minutes during which time HBS running buffer was injected. The resultant sensorgrams were double-referenced by subtracting out the binding on the reference surface and the response from the HBS blank buffer control. Binding response report points were collected 20 seconds into the dissociation phase of the interaction at time 200 seconds, which represents a stable binding response and excludes bulk refractive index changes and nonspecific binding.

endogenous α-synuclein = molecular target: T2, endogenous α-synuclein (Rattus norvegicus, UniProt P37377); assay: Knockdown of endogenous α-synuclein in primary cortical neuron cultures, immunoblot; type: cell-based
T2 construct: endogenous in cells; host or cells: primary rat cortical neurons (14 DIV) and primary rat ventral midbrain neurons (3 DIV)
Procedure: Primary rat neuron cultures were prepared from embryos of pregnant Sprague-Dawley rats (E18). The experimental protocol was approved by the University of British Columbia Animal Care Committee. Briefly, the cortical tissue or ventral midbrain tissue was isolated into ice cold HBSS (Invitrogen, 14170-112) and then digested with 0.25% trypsin-EDTA at 37° C. for 30 min. After washing with warm DMEM (supplemented with 10% FBS) three times, neurons were suspended in neuron culture media and dissociated by trituration using varying sizes of pipettes. Neurons were then centrifuged, and the pellet was re-suspended in culture media, washed twice with culture media, and plated on the poly-D-lysine-coated plates. Neuron culture was maintained in the 37° C. incubator with […] and 5% CO2. The morning after culturing, 2/3 of the neuron culture media was replaced with fresh neuron culture media. Media was then replaced every 3-4 days. Primary rat cortical neuron culture was used 14 days in vitro (DIV) and primary rat ventral midbrain neuron culture was used 3 DIV.
Tat-βsyn-degron and Tat-βsyn peptides were first dissolved in sterile water as a 25 mM stock solution and then diluted directly in the neurobasal culture media to make the desired working concentration. 20 mM MPP+iodide stock solution was made freshly each time and diluted in the neurobasal culture media directly to make the desired working concentration. For 48 hrs treatment, neuron culture media containing MPP+ and peptides were replaced every 24 hrs.
(§1) Brain tissues or cultured cells were lysed on ice in the lysis buffer and then the solution was centrifuged at 14,000 rpm for 10 min at 4° C. Next, the supernatant was collected and protein concentrations were determined using a BCA protein assay kit (Thermo Scientific, 23227). Equal amount of protein samples was mixed with 4× sample buffer, boiled at 100° C. for 5 min, and separated on 10% sodium dodecyl sulphate-polyacrylamide gel electrophoresis (SDS-PAGE). Proteins were then transferred to Immobilon-PTM polyvinylidene fluoride (PVDF) membranes (Bio-Rad, 162-0177). The membranes were blocked with 5% non-fat milk in Tris-buffered saline containing 0.1% Tween-20 (TBST) for 1 hr at room temperature, and then incubated overnight at 4° C. with primary antibody. After washing 3×5 min in TBST, membranes were incubated with horseradish peroxidase-conjugated secondary antibody for 1 hr at room temperature. After another three washes with TBST, protein was visualized in the Bio-Rad Imager using ECL western blotting substrate (Pierce, 32016). The band density of each protein was quantified by the Bio-Rad Quantity One software and the relative optical density was analyzed relative to the loading control β-actin on the same membrane.

dopaminergic neurons = assay: MPTP mouse model, dopaminergic neuronal damage (TH immunoblotting, TH immunohistochemistry); type: in vivo; conditions: peptide 6 μmol/kg i.p. twice a day for 12 days
Procedure: C57BL/6 mice were i.p. injected with 30 mg/kg parkinsonian toxin MPTP (or saline as control), once per day for 5 consecutive days, to induce dopaminergic neuron damage. The effects of MPTP administration on mouse rotarod performance and damage to dopaminergic neurons were then analyzed 1 week after the last injection of MPTP. To determine the effect of α-synuclein knockdown in protecting dopaminergic neurons against MPTP, the Tat-βsyn-degron peptide or its control Tat-βsyn (6 μmol/kg; i.p.) was used in some animals twice a day for 12 days, beginning the first day of MPTP injection. […] The striatum is a region that receives dopaminergic neuronal projections from the substantia nigra and is also deeply affected in PD. Consistent with the specific neurotoxic effects of MPTP on dopaminergic neurons, in mice receiving MPTP injection alone there was a significant loss of protein TH in both dopaminergic neurons in the substantia nigra-containing ventral midbrain (FIGS. 6a and 6c) and dopaminergic neuronal terminals in the striatum (FIGS. 6d and 6f). […] As expected, the specific knockdown of α-synuclein by Tat-βsyn-degron protected against MPTP-induced dopaminergic neuronal injury (FIGS. 6c and 6f).
(§2) C57BL/6 mice (20-25 g) received intraperitoneal (i.p.) injection of 30 mg/kg parkinsonian toxin MPTP hydrochloride once a day for 5 days to induce dopaminergic neuron death in the substantia nigra, while the control mice received equal volumes of saline injection. 6 μmol/kg Tat-βsyn-degron peptide or control Tat-βsyn peptide was i.p. injected into the MPTP-treated mice every 12 hrs from the first day of MPTP injection until 7 days after the last injection of MPTP. All groups of mice then underwent a rotarod test before they were sacrificed.
as §1
C57BL/6 mice were anesthetized with 1.5 g/kg urethane (Sigma, U2500) and then perfused with 0.9% saline and 4% paraformaldehyde. Brains were removed and fixed in 4% paraformaldehyde for 24 hrs before being transferred to 30% sucrose/PBS solution for cryoprotection. The brains were then sectioned into 30 μm slices using a Leica cryostat. After blocking and permeabilization using a PBS solution containing 1% BSA and 0.2% Triton X-100 for 30 min at room temperature, the brain slices were incubated with anti-TH antibody (1:800 dilution) for 3 days at 4° C. Finally, the TH-positive neurons in the substantia nigra and TH-positive neuronal terminals in the striatum were stained using the anti-mouse Ig HRP detection kit (BD Transduction Laboratories, 551011) according to manufacturer's instruction, and visualized under Zeiss Axio Observer D1 microscope. […]

C57BL/6 mice = assay: MPTP mouse model, rotarod test; type: in vivo; conditions: peptide 6 μmol/kg i.p. twice a day for 12 days, vs MPTP group
Procedure: as §2
The rotarod test was performed as previously described (Heldermon, C. D. et al., PloS one 2, e772, doi:10.1371/journal.pone.0000772 (2007)), with modifications. Briefly, 6 days after the last MPTP injection, all mice received 4 rounds of training on the rotarod (Stoelting Co.). In the first two rounds of training, the rotarod was maintained at constant speed of 20 rpm for 3 min. In the second two rounds of training, the rotarod reversed rotation direction every 3 turns at the constant speed of 20 rpm for 3 min. […] Mice were tested 10 times at 20 min intervals, and the time that they remained on the rotarod during each test was recorded. […] The motor performance of the mouse was expressed as the latency to fall off the rotarod.

YGRKKRRQRRRGVLYVGSKTRRRRG [Tat-βsynN-degron]
binding response to immobilized α-synuclein [1]: robust and similar binding

YGRKKRRQRRR [Tat peptide, reference compound]
binding response to immobilized α-synuclein [1]: little binding

YGRKKRRQRRRRTKSGVYLVG [Tat-βsyn, control peptide lacking the proteasomal targeting signal, reference compound]
endogenous α-synuclein protein levels (endogenous α-synuclein; bath application 24 hrs, 5-50 μM (control 50 μM), cortical neuron cultures): had no effect
MPTP-induced dopaminergic neuronal damage (overall, FIG. 6 and FIG. 7a-d) (dopaminergic neurons): small, non-significant decrease
MPTP-induced motor deficits (latency to fall off the rotarod) (C57BL/6 mice): significantly reduced

CC(C)C[C@@H](C=O)NC(=O)[C@H](CC(C)C)NC(=O)[C@H](CC(C)C)NC(=O)OCc1ccccc1 [MG132, reference compound] (Cbz-Leu-Leu-Leu-aldehyde)
effect on Tat-βsyn-degron induced knockdown of α-synuclein (endogenous α-synuclein; 10 μM MG132 + 50 μM Tat-βsyn-degron, 24 hrs): prevented Tat-βsyn-degron induced knockdown of α-synuclein
